Reference: article PMC10497828, “A novel peptide derived from vascular endothelial growth factor prevents amyloid beta aggregation and toxicity” (Aging Cell, 2023)
Ends that are not written are not given here.

Legend:
Aβ42 oligomers (LMW Aβo) = molecular target: T1, Aβ42 oligomers (LMW Aβo) (Homo sapiens, UniProt P05067); experiment: Indirect ELISA, binding of immobilized BP/CP to biotinylated LMW Aβ42 oligomers
T1 construct: Biotinyl-Amyloid b pr otein ( 1-42); purchased Bachem H-5642; host or cells: chemical synthesis
T1 sequence (P05067 672-713 limits assumed): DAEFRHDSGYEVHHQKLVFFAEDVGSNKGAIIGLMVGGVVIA
Description: (§1) Synthetic Aβ40, Aβ42, and their biotinylated forms were obtained as lyophilized samples from Bachem (Aβ40, b‐Aβ40, Aβ42 and b‐Aβ42). Briefly, peptides were solubilized in 1,1,1,3,3,3‐hexafluoro‐2‐propanol to prevent oligomerization, then evaporated overnight under a chemical fume hood, and stored as a dried peptide film at −80°C until use, as previously described (Stine et al., [2003]). Aβ monomers (Aβm) were prepared extemporaneously by first dissolving the peptide film in 2 mM dimethyl sulfoxide (DMSO) and vortexing for 1 min. Peptides were further diluted to 100 μM in ice‐cold PBS. Diluted peptides were subsequently sonicated for 20 min at 4°C, centrifuged at 10,000g for 3 min, then the supernatant was collected and concentration of Aβm measured using a micro BCA protein assay kit, prior to being aliquoted and stored at −20°C until use. […]
(§2) The binding of CP or BP to synthetic biotinylated LMW Aβo (oligomerized at 4°C for 24 h) or Aβ40 monomers (Aβm) was determined by indirect ELISA in which CP or BP were used as the capture antigens and the biotin tag of the biotinylated Aβ peptides for the detection. […] Absorbance was successively measured at 450 and 540 nm with a TECAN microplate reader and optical density values at 540 nm were subtracted from the ones at 450 nm to correct for optical imperfections of the plate. […]

[1] = molecular target: T2, Aβo-VEGF interaction (recombinant human VEGF165) (Homo sapiens, UniProt P05067); experiment: Competitive ELISA, Aβo binding to immobilized VEGF165; assay type: biochemical
T2 construct: Biotinyl-Amyloid b pr otein ( 1-42); purchased R&D Systems (VEGF165); Bachem (biotinyl-Aβ 1-42) 293-VE (VEGF165); H-5642 (biotinyl-Aβ 1-42)
T2 sequence (P05067 672-713 limits assumed): as above
Description: Data were expressed as mean ± SEM in ThT, Western blotting, synaptic targeting experiments and electrophysiological recordings (Table S2). Normality and variance homoscedasticity were assessed using descriptive analysis and appropriate tests. Sample size (n) was determined based on previous studies from the literature and pilot experiments; n refers to the number of ELISA, ThT or Western Blotting experiments, to coverslips or culture wells for hippocampal neuron cultures, and to mice per condition or per genotype for electrophysiological experiments. […] For the analysis of Aβ‐BP interaction, K D was determined by fitting the data to a two‐parameter saturation curve. […] For quantitative assessment of Aβ aggregation, Aβ expression level and the percentage of synapses colocalized with Aβ, data were compared for statistical significance between groups using a Kruskal–Wallis and a Dunn's post hoc test with Holm correction (R software) (Table S3). For electrophysiological data, statistical analysis between treatments and/or genotypes were carried out using a Kruskal–Wallis followed by a Dunn's post hoc test to compare differences in fEPSP slopes (Table S3). […]
Competi tive ELISA experi ments were performed to anal yse the ability of the BP to impede bi oti nyl ated LMW Aβo bi ndi ng to VEGF. […] After adding the stop solution, absorbance was measured using a TECAN microplate reader.

[2] = system: synapses / LTP impaired by Aβo; conditions: ref Martin et al., 2021; cited from earlier work
[3] = system: hippocampal neuron cultures (Aβo binding to PSD95/Bassoon synapses); experiment: Synaptic targeting in hippocampal neurons by Aβ oligomerized with peptide; assay type: cell-based, C57Bl/6JRj mouse; conditions: Aβ oligomerized 2 h in presence of peptide; 0.5 μM, 30 min
Description: Primary hippocampal neuron cultures were prepared from E17‐18 C57Bl/6JRj mice. Briefly, hippocampi were removed and collected in Hank's buffered salt solution (HBSS), digested in HBSS supplemented with trypsin (0.25% v/v) for 10 min at 37°C and then rinsed in HBSS and BSA 0.2%. Next, hippocampi were triturated in Neurobasal medium without phenol red, supplemented with L‐glutamine (2 mM), 2% B27, 1% penicillin/streptomycin (P/S) (10,000 U/mL). Hippocampal neurons were then plated onto poly‐L‐lysine coated coverslips (0.5 mg/mL) at a low density (15 × 10^3 cells/cm^2) for synaptic targeting experiments. Neurons were cultured in supplemented Neurobasal medium at 37°C under 5% CO2, one‐half of the medium being changed once a week. […]
Treated hippocampal neuron cultures were fixed for 4 min in 4% paraformaldehyde (PFA) in 0.1 M phosphate buffer at RT, prior to immunostaining. After a blocking step in non‐permeabilizing condition (PBS, 1% BSA) surface‐bound biotinylated Aβ was detected with fluorescently tagged streptavidin incubated for 3 h at RT. […]
Subsequent analyses of hippocampal synapse staining were performed by a blinded investigator with Icy software. […] Biotinylated Aβ clusters were quantified in each ROI in collapsed Z‐stacks. […]

[4] = system: Aβ42 monomers (Aβm), fibrillation; experiment: Thioflavin T aggregation assay; assay type: biochemical; conditions: increasing concentrations 0.5 to 15 μM, 15 μM Aβm, 24 h
Description: as §1
Thioflavin‐T (ThT) assays were performed in black polystyrene 384‐well plates using a Tecan microplate reader with a set of excitation/emission wavelengths of 450/490 nm. […] The plate was sealed with a transparent plastic film and incubated at 37°C prior to fluorescence measurement. ThT fluorescence intensity was monitored every 5 min over 24 h at 37°C without agitation. Three replicates per condition were measured.
Data were expressed as mean ± SEM in ThT, Western blotting, synaptic targeting experiments and electrophysiological recordings (Table S2). […]

[5] = system: VEGFR2 phosphorylation (Tyr1175) in HUVEC; experiment: VEGFR2 phosphorylation Western blot in HUVEC; assay type: cell-based, human; conditions: 0.5 μM, 5 min
Description: Human um bi l i cal v ei n endothel i al C ell s (HUVEC ) were obtai ned from Pr omocel l and cul tured
in 6 cm Petri di s hes pre-coated wi th col l ag en I at 5 µ g /cm2 in 20 mM glacial acetic acid. HUVEC
were cultured at 7000 cells/cm2 in endothelial cell growth medium MV2 heparin free
(Promocel l ) s uppl emented wi th 1% P/S unti l reac hi ng 80% c onfl uency , an d were us ed for u p
0.5 µ M. After treatments, HUVEC were washed a nd i ncubated i n 6 00 mL of l ysi s buf fer (Tri s HCL 25 mM, EDTA 5 mM, DOC 0.5 mM, NP40 1%, SDS 0.1%, NaCl 150 mM), suppl emented with cOmplete protease inhibitor cocktail 2%, Benzonase 0.02%, Orthovanadate 2%, and phos phat as e i nhi bi t ors 2% for 10 mi n at 4°C .
For immunoblotting of HUVEC cel l l y s ates , 20 µg of proteins were separated on 3-8% g radi ent SDS-PAGE gels at 120V, with cathode and ano de contai ni ng XT Try ci ne buffe r. G el s w ere transferred on 0.2 µm nitrocellulose membranes at 120V for 2h in 5% methanol, Tris-Glycine buffer and immunoblotted.
were used in combination with approp riate secondary antibodies (Table S1)

[6] = system: SC-CA1 synapses in APP/PS1 hippocampal slices; experiment: Paired-pulse facilitation in APP/PS1 hippocampal slices; assay type: cell-based, APP/PS1-21 mouse; conditions: 50 ms, after TBS
Description: (§4) Local field potential recordings (LFP) were performed on acute coronal hippocampal slices from 8‐month‐old wild type and transgenic heterozygous male APP/PS1‐21 mice to measure baseline synaptic response and long‐term potentiation (LTP) of Schaffer collaterals to CA1 (SC‐CA1) pyramidal cell synapses. Hippocampal slices (400 μm thick) were cut using a vibratome (Leica VT1200S) and incubated at room temperature in artificial cerebrospinal fluid (ACSF) containing (in mM): 124 NaCl, 10 glucose, 1.25 NaH2PO4, 2.5 KCl, 26 NaHCO3, 1.3 MgCl2, and 2.5 CaCl2, bubbled with 95% O2 and 5% CO2, pH 7.4 for 1 h prior to recording. Field excitatory postsynaptic potentials (fEPSPs) were recorded extracellularly in stratum radiatum of CA1 region of the dorsal hippocampus in presence of gamma‐aminobutyric acid (GABA)‐A receptor antagonist picrotoxin (100 μM). Electrical stimulation was realized with a bipolar tungsten electrode placed in CA1 stratum radiatum and fEPSPs were measured using borosilicate glass microelectrodes (~1–3 MΩ) filled with ACSF. […] LFP were sampled at 10 kHz and fEPSPs initial slope was computed to quantify synaptic responses. […] For quantification, the slope of the synaptic response to the second stimulation was divided by that of the first response.

[7] = system: SC-CA1 synapses in WT hippocampal slices; experiment: LTP (TBS) in WT hippocampal slices; assay type: cell-based, wild-type mouse
Description: (§3) Data were expressed as mean ± SEM in ThT, Western blotting, synaptic targeting experiments and electrophysiological recordings (Table S2). Normality and variance homoscedasticity were assessed using descriptive analysis and appropriate tests. Sample size (n) was determined based on previous studies from the literature and pilot experiments; n refers to the number of ELISA, ThT or Western Blotting experiments, to coverslips or culture wells for hippocampal neuron cultures, and to mice per condition or per genotype for electrophysiological experiments. […] For the analysis of Aβ‐BP interaction, K D was determined by fitting the data to a two‐parameter saturation curve. […] For quantitative assessment of Aβ aggregation, Aβ expression level and the percentage of synapses colocalized with Aβ, data were compared for statistical significance between groups using a Kruskal–Wallis and a Dunn's post hoc test with Holm correction (R software) (Table S3). For electrophysiological data, statistical analysis between treatments and/or genotypes were carried out using a Kruskal–Wallis followed by a Dunn's post hoc test to compare differences in fEPSP slopes (Table S3).

Aβ40 monomers (Aβm) = molecular target: T3, Aβ40 monomers (Aβm) (Homo sapiens, UniProt P05067); experiment: Indirect ELISA, binding of immobilized BP/CP to biotinylated Aβ40 monomers; conditions: Aβm 0 to 10 μg/mL
T3 construct: Biotinyl-Amyloid b pr otein ( 1-40); purchased Bachem H-5914; host or cells: chemical synthesis
T3 sequence (P05067 672-711 limits assumed): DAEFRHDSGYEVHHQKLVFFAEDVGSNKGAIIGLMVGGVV
Description: as §1, §2

Aβ42 fibrils = experiment: Transmission electron microscopy of Aβ aggregates; assay type: biochemical
Description: Synthetic Aβ40, Aβ42, and their biotinylated forms were obtained as lyophilized samples from Bachem (Aβ40, b‐Aβ40, Aβ42 and b‐Aβ42). Briefly, peptides were solubilized in 1,1,1,3,3,3‐hexafluoro‐2‐propanol to prevent oligomerization, then evaporated overnight under a chemical fume hood, and stored as a dried peptide film at −80°C until use, as previously described (Stine et al., [2003]). Aβ monomers (Aβm) were prepared extemporaneously by first dissolving the peptide film in 2 mM dimethyl sulfoxide (DMSO) and vortexing for 1 min. Peptides were further diluted to 100 μM in ice‐cold PBS. Diluted peptides were subsequently sonicated for 20 min at 4°C, centrifuged at 10,000g for 3 min, then the supernatant was collected and concentration of Aβm measured using a micro BCA protein assay kit, prior to being aliquoted and stored at −20°C until use. […] Aβ preparations were used either directly as monomers (for Aβ40 Elisa assays and ThT experiments) or were subjected to different oligomerization states, enriched in high molecular weight Aβ42 oligomers (HMW Aβo) or in low molecular weight Aβ42 oligomers (LMW Aβo). For Aβ preparations enriched in Aβ fibrils, monomeric Aβ42 peptides (Aβm) were incubated at a concentration of either 30 μM or 15 μM during 24 h at 37°C. For HMW Aβo, Aβm was incubated at 15 μM for 2 h at 37°C. […]

[8] = system: Aβ42 oligomerization (monomers, LMW and HMW Aβo); experiment: Western blot (6E10) of soluble Aβ species formed in presence of peptide; assay type: biochemical; conditions: equimolar peptide, 15 μM Aβm, 37°C
Description: as §1
After a 45 min blocking step in Tris‐buffered saline, 0.1% Tween, pH 7.6, 5% milk, membranes were immunoblotted overnight at 4°C with dedicated antibodies (Table S1) diluted in Tris‐buffered saline, 0.1% Tween, pH 7.6, with 2% milk. […] Proteins were visualized with an ECL detection system and band intensities quantified using a densitometric analysis with ImageJ software.

[9] = system: SC-CA1 synapses in WT hippocampal slices; experiment: Paired-pulse facilitation in WT hippocampal slices; assay type: cell-based, wild-type mouse; conditions: 50 ms, after TBS
Description: as §4

[10] = system: SC-CA1 synapses in APP/PS1 hippocampal slices; experiment: LTP (TBS) in APP/PS1 hippocampal slices; assay type: cell-based, APP/PS1-21 mouse
Description: as §3

[11] = 0.5 μM, at least 40 min before TBS

KRKKSRYKSWSVYVG [BP]
Kd (Aβ42 oligomers (LMW Aβo)): 12 nM | EC50 ([1]; Aβo 2.1 μM preincubated with BP 1 h RT, three-parameter sigmoidal fit, n = 5-6): 350 nM

VEGF
Protection of synapses / LTP from Aβo [2]: ability to preserve synapses from dysfunction and LTP deficits caused by Aβo

NDYKDDDDKGAAA [CP]
Aβo binding to neuron surface and synapses [3]: strong binding to hippocampal neuron surface | Effect on ThT fluorescence [4]: had no impact on ThT fluorescence | Effect on basal VEGFR2 phosphorylation [5]: did not affect basal VEGFR2 phosphorylation level | Effect on paired-pulse ratio [6]: no differences were detected | Binding of Aβo to immobilized peptide (Aβ42 oligomers (LMW Aβo); ELISA, Aβo 0 to 10 μg/mL): failed to bind to the CP even at the highest concentration | Effect on LTP in WT slices [7, 11]: neither CP nor the BP impacted LTP responses | LTP amplitude, fEPSP slope 55–60 min after TBS ([7]; peptide 0.5 μM at least 40 min before TBS, WT slices, 8-month-old male, mean ± SEM, n = 6 mice): 191.4 ± 18.3% | Effect on Aβo-VEGF interaction ([1]; peptide preincubated with Aβo 2.1 μM): did not affect Aβo binding | Binding of Aβm to immobilized peptide (Aβ40 monomers (Aβm)): failed to bind to the CP even at the highest concentration | Morphology of Aβ aggregates by TEM (Aβ42 fibrils; Aβ 30 μM + equimolar peptide, 24 h at 37°C, n = 4): typical fibrillary structures | Structures formed by peptide alone, TEM (Aβ42 fibrils; peptide alone, no Aβ): do not show any detectable 3D structures | Effect on proportion of Aβ species [8]: did not change the proportion of Aβo species | Effect on paired-pulse ratio [9]: no differences were detected | Effect on LTP in APP/PS1 slices [10, 11]: failed to restore LTP | LTP amplitude, fEPSP slope 55–60 min after TBS ([10]; peptide 0.5 μM at least 40 min before TBS, APP/PS1 slices, 8-month-old male, mean ± SEM, n = 7 mice): 119 ± 9.1%
